Results published in ChEMBL document CHEMBL1201862, “PubChem BioAssay data set” (2004).
Activity calls are given as the source filed them.

Assays:
[1] = test system: HeLa; experiment: HeLa cell cytotoxicity, dose response, cytotoxicity control for MITF activator project, CellTiter-Glo luminescence, cherry-pick samples (AID 540259); assay type: functional, cell-based; conditions: Homo sapiens
[2] = test system: Escherichia coli; experiment: microbe, parasite or virus in culture
[3] = inhibitors of SNCA 5'UTR-driven reporter translation, confirmation, H4 neuroglioma cells, luminescence (AID 1988); assay type: functional, cell-based
[4] = MC4R antagonists, dose response, counter-screen for LGR2 antagonist project, cell-based, plate reader, cherry pick (AID 743444); assay type: functional;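 further: transfected HEK 293 cells stimulated with alpha-MSH peptide; potency of inhibitors of the alpha-MSH evoked signal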
[5] = Luminescence Cell-Based Dose Response HTS to Identify Inhibitors of 5'UTR Stem-Loop Driven Prion Protein mRNA Translation in H4 Neuroglioblastoma Cells. [Related pubchem assays: 1827 (Project Summary), 1813 (Primary HTS)]; assay type: functional
[6] = test system: HEK293; experiment: inhibitors of LMP1-driven NF-kB reporter, dose response, cell-based, HEK293, luciferase, cherry-pick (AID 588343); assay type: functional; conditions: Homo sapiens
[7] = inhibitors of firefly luciferase expression or activity, dose response, H4 neuroglioma cells, luminescence (AID 1990); assay type: functional, cell-based
[8] = LGR2 antagonists, dose response, cell-based, HEK293, CRE-luciferase reporter, cherry pick, set 2 (AID 743343); assay type: functional;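 further: transfected cells were stimulated with diluted bursicon conditioned medium after compound addition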
[9] = cytotoxicity in HEK-293T cells, dose response, cytotoxicity control for BCR NF-kB inhibitor project, luminescence, B-cell screen hits (AID 489021); assay type: functional, cell-based;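 further: HEK-293T cells carrying an NF-kB luciferase reporter; cells exposed to compound for about 14 hours before viability readout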
[10] = test system: H9c2; experiment: cells; assay type: functional, cell-based; conditions: Rattus norvegicus, H9c2, Myocardium;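 further: confirmatory concentration-response retest of ultra-high-throughput screening hits for modulation of myocardial damage; cell death induced by hydrogen peroxide oxidative stress; compound pretreatment for 60 min then peroxide exposure for 2 h; potency is for protecting the cells against peroxide damage rather than for killing them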
[11] = target: 26S proteasome non-ATPase regulatory subunit 14 (Homo sapiens, UniProt O00487); experiment: inhibition of proteasome subunit RPN11 – biochemical, fluorescence polarization, uHTS hits, confirmation (AID 602368); assay type: functional
26S proteasome non-ATPase regulatory subunit 14, sequence (O00487 whole entry): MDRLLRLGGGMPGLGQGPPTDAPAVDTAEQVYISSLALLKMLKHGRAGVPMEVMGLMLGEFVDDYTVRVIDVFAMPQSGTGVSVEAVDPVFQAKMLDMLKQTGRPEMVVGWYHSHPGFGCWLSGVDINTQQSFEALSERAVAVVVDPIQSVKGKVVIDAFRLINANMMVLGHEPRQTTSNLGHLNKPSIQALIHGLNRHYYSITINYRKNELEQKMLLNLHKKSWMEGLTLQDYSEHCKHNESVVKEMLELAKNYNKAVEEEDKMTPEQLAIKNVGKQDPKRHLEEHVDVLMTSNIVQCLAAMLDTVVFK

[12] = target: Prothrombin (Bos taurus, UniProt P00735); experiment: thrombin inhibition, dose response, biochemical, fluorescence polarization, uHTS hits (AID 602369); assay type: functional
[13] = target: 72 kDa type IV collagenase (Homo sapiens, UniProt P08253); experiment: Dose Response validation of uHTS RPN11 inhibitor hits using a MMP-2 Fluorescence assay.; assay type: functional
72 kDa type IV collagenase, sequence (P08253 whole entry): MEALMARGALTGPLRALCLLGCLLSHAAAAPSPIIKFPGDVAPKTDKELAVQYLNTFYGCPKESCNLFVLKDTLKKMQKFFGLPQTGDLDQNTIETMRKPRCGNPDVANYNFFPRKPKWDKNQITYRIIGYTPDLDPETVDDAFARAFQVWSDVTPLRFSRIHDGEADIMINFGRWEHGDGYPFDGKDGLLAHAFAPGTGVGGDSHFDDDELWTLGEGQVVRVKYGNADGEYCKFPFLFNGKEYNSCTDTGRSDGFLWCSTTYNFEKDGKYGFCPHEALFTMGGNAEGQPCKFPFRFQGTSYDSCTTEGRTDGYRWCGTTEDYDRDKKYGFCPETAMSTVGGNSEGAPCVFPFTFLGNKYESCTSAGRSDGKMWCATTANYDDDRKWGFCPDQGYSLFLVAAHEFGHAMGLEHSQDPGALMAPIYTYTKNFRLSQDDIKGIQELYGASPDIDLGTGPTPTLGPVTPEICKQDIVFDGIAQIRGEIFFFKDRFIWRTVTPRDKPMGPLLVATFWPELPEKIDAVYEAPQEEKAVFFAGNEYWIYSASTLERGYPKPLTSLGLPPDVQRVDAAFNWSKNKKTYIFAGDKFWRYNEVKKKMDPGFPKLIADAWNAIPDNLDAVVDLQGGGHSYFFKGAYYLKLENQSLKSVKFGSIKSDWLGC

[14] = target: Cytochrome P450 2D6 (Homo sapiens, UniProt P10635);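 further: CYP2D6 member of a cytochrome P450 panel assay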
Cytochrome P450 2D6, sequence (P10635 whole entry): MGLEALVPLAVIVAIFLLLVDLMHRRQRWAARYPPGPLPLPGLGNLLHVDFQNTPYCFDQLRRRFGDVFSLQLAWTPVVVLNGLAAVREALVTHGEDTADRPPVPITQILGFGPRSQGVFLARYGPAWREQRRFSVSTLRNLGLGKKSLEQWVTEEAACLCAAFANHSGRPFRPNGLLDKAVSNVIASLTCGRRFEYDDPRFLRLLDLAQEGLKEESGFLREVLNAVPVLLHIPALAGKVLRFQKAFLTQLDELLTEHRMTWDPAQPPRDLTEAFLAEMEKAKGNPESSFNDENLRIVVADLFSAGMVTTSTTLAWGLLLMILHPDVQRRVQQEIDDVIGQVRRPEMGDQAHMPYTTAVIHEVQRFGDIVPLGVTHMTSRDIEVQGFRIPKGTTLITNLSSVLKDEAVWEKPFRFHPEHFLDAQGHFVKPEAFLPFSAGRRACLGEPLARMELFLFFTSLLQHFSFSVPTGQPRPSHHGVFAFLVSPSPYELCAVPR

[15] = target: Cytochrome P450 3A4 (Homo sapiens, UniProt P08684);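 further: CYP3A4 tested as one member of a cytochrome P450 panel screen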
Cytochrome P450 3A4, sequence (P08684 whole entry): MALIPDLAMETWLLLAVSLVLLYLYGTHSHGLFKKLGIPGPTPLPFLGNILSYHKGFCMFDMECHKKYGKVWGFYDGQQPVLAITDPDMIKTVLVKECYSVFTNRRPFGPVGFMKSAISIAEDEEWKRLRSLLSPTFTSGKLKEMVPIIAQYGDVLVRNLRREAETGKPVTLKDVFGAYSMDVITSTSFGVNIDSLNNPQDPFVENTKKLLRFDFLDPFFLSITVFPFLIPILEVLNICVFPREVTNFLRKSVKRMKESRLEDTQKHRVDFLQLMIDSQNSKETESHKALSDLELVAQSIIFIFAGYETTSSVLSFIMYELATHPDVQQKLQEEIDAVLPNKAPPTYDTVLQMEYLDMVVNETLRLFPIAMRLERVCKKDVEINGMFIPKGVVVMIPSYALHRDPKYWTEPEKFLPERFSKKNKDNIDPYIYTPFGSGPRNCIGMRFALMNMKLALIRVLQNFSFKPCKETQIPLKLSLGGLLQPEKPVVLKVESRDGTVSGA

[16] = target: T1, Low molecular weight phosphotyrosine protein phosphatase (Homo sapiens, UniProt P24666); assay type: functional; conditions: read-out: IC50_Mean;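 further: Dose-response confirmation assay measuring inhibition of LMPTP enzyme activity by fluorescence intensity read-out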
T1 sequence (P24666 whole entry): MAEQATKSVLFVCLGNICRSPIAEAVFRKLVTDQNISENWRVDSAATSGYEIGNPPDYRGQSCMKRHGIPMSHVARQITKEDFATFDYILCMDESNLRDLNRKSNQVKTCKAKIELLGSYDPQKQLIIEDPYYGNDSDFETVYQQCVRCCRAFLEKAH

[17] = cells; assay type: functional
[18] = test system: Streptococcus; experiment: Group A Streptococcus viability loss, dose response, counter-screen for streptokinase expression inhibitor project, luminescence, BacTiterGlo (AID 1915); assay type: functional, organism-based;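 further: potency for reduction of bacterial viability or growth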
[19] = test system: Streptococcus sp. 'group A'; experiment: growth inhibition of control SK(-) GAS strain, dose response, counter-screen for streptokinase expression inhibitor project, luminescence, kanamycin, BacTiterGlo, confirmation (AID 1900); assay type: functional, organism-based

COc1cc2c(C)nc3c(cnn3-c3ccccc3)c2cc1OC
AC50 [1]: 86.7 µM (active)

CNC(=O)CNC(=O)Nc1ccc(C)cc1
AC50 [2]: 29.8 µM (active)

CCOC(=O)c1cn2nc(N3CCCC3)ccc2n1
EC50 [3]: 5.55 µM (active)
AC50 [4]: 5.54 µM (active)
EC50 [5]: 2.56 µM (active)
AC50 [6]: 3.17 µM (active)
EC50 [7]: 8.17 µM (inconclusive)
AC50 [8]: 5.94 µM (active)

COc1cc(NC(=O)c2cc3c(C)nc4ccccc4c3o2)cc(OC)c1OC
IC50 [9]: 62.8 µM (inactive)
IC50 [10]: > 79 µM (inactive)

COc1ccc(/C=N/NC(=O)c2ccc(COc3cccc4cccnc34)cc2)cc1OC
IC50 [10]: > 79 µM (inactive)

O=C(Nc1ccccn1)c1ccccc1
AC50 [1]: 83.2 µM (active)

Cn1c(=O)c2cc(S(=O)(=O)NC(C(=O)Nc3cccc(F)c3)c3ccccc3)ccc2n(C)c1=O (stereo unspecified)
IC50 [11]: 92.8 µM (active)
IC50 [12]: > 100 µM (inactive)
IC50 [13]: > 100 µM (inactive)

COc1ccc(C(=O)Nc2ccc3c4c(cccc24)CC3)cc1
AC50 [1]: 73.4 µM (active)

O=C1CCCCCC1C1(O)C(=O)Nc2ccc(Br)cc21 (stereo unspecified)
AC50 [14]: inconclusive
AC50 [15]: 17.8 µM (inconclusive)

COc1ccc(-n2nc3c(N4CCC(C(=O)NCc5ccco5)CC4)nnc(C)c3c2C)cc1
EC50 [3]: > 120 µM (not active)
EC50 [5]: 20.3 µM (active)
IC50 [16]: 61.1 µM (inactive)
EC50 [7]: > 120 µM (not active)

CN1CCN(c2cc3c(cc2F)c(=O)c(C(=O)O)cn3CCF)CC1
IC50 [17]: 3.08 µM (active)
EC50 [18]: 7.64 µM (active)
AC50 [2]: 2.57 µM (active)
EC50 [19]: 5.58 µM (active)
